# Data published in patent US7141170B2, “Halogenated solvent remediation” (North Wind, Inc., priority 2004, dated 2006).
# Columns and labels:
# [1] = Surface tension of electron donor solutions (pendant drop); type: physicochemical; conditions: for change in surface tension: 0% ethyl lactate
# Excerpt: Two fundamental properties used to screen the co-solvent or surfactant properties of a solution are surface tension and interfacial tension. Surface tension measures the force per unit length along the interface between a liquid and air due to its tension. When a co-solvent or surfactant is present in an aqueous liquid at increasing concentrations, the surface tension of that liquid decreases. Interfacial tension is similar to surface tension except that it measures the force per unit length along the interface between two liquid phases arising from the surface free energy. The higher the interfacial tension between two liquids, the less likely one is to dissolve into the other, and the more difficult it is for one to be transported within the other. Thus, perhaps the most significant property of co-solvents and surfactants in the context of chlorinated solvent remediation is that they decrease the interfacial tension between the aqueous phase (groundwater) and the organic nonaqueous phase so that the solubility (or mobility for order-of-magnitude decreases) of the nonaqueous phase is enhanced. The laboratory study performed to confirm the co-solvent properties of the high concentration electron donor solution measured the surface tension of electron donor solutions at various concentrations. Next, interfacial tensions between the same electron donor solutions and nonaqueous phase TCE were measured. Two types of electron donor solutions were used. […] Surface and interfacial tension measurements were made using the pendant drop method (M. J. Rosen, ed., Structure/Performance Relationships in Surfactants, American Chemical Society, Washington […]. Arundel, The Profile Area of Pendant Drops, 82 J. Phys. Chem. 898 (1978)) coupled with real-time video imaging (M. D. Herd et al., Interfacial Tensions of Microbial Surfactants Determined by Real-Time Video Imaging of Pendant Drops, Proceedings paper number SPE/DOE 24206 513-519, SPE/DOE Eighth Symposium on Enhanced Oil Recovery, Tulsa, Okla. (1992)).
# [2] = test system: TCE-dechlorinating culture derived from TAN-25 groundwater; test: Microcosm dechlorination and electron donor utilization study; type: cell-based
# Method: Dechlorination studies were carried out to determine if whey powder solutions facilitate complete degradation of target contaminants at reasonable rates. Microcosms were constructed in triplicate sets. These microcosms were amended periodically with whey powder and TCE and analyzed monthly for TCE, its reductive degradation products, electron donor (as both COD and volatile fatty acids (VFAs)), redox, and pH.
# An existing laboratory, sodium lactate-fed culture, derived from TAN-25 groundwater undergoing complete anaerobic reductive dechlorination (ARD) of TCE to ethene, was used to inoculate the cultures. Fresh TAN groundwater from the source area was also used to ensure that microbial populations that have been lost as a result of laboratory conditions were present for the evaluation. Serum vials (160 mL) were used as microcosms to grow the cultures. Prior to inoculation, the microcosms, along with all other culture-contact supplies, were autoclaved at 121° C. for 20 minutes and cooled to room temperature. Inoculation of the microcosms was done in a glove box containing nitrogen (95%), carbon dioxide (2.5%), and hydrogen (2.5%). Each microcosm was loaded with the inoculum, which comprised cells from the TCE-dechlorinating culture (1 L), cells from TAN-25 groundwater (1 L), and TAN-37 groundwater (2.5 L) as the media.
# The culture cells were used to ensure a robust dechlorinating community was present, and cells were collected from TAN-25 groundwater to ensure the laboratory community was representative of the community at TAN. […] The cell pellets from the dechlorinating culture and TAN-25 groundwater were separated from the supernatant because both contained electron donors, including propionate, acetate, and lactate. TAN-37 groundwater was selected as the medium because it was anaerobic groundwater that contained little or no carbon (40 mg/L as COD with <2.5 ppm acetate and propionate) that might interfere with the evaluation of electron donor utilization. The inoculum mixture was then spiked with TCE (10 ppm), aliquoted (100 mL) into the microcosms, and each respective electron donor was added (˜200 ppm for all electron donors except whey powder [˜400 ppm]). The microcosms were then sealed with butyl-rubber septa and crimped. The headspace of each microcosm was flushed for 10 minutes with 100% nitrogen, and then an initial positive pressure of 5 psig was induced into each one. […] The test microcosms were prepared in triplicate and negative control microcosms were amended with whey powder and LactOil™/propionate. The study included a total of 20 microcosms.
# Three months after inoculation, additional electron donor was added to all of the microcosms (200 to 300 mg/L as COD). […] At this point, approximately 50 mL of TAN-37 groundwater was also amended to all of the biotic microcosms to replace the volume lost because of sampling. This was done by placing all of the biotic microcosms into the anaerobic chamber containing nitrogen (95%), carbon dioxide (2.5%), and hydrogen (2.5%); removing the septum; adding TAN-37 groundwater and electron donor; and replacing septum and spiking each microcosm with a TCE stock solution. TCE was amended to all of the microcosms 4 and 6 months after inoculation.
# Throughout these studies, the microcosms were monitored monthly for TCE, cis-DCE, trans-DCE, VC, ethene, ethane, methane, lactate, acetate, propionate, butyrate, pH, and Eh. […] Analytical samples (6 mL) were removed using a glass syringe (Hamilton Co., Reno, Nev.) and a 22-gauge sterile needle.
# [3] = Interfacial tension between electron donor solutions and nonaqueous phase TCE (pendant drop); type: physicochemical; conditions: 0% ethyl lactate
# Excerpt: Based on the field results presented in Example 1, laboratory studies were preformed to confirm that the enhanced bioavailability of TCE observed in the field was due to co-solvent or surfactant behavior resulting from the use of high concentrations of sodium lactate. Two fundamental properties used to screen the co-solvent or surfactant properties of a solution are surface tension and interfacial tension. Surface tension measures the force per unit length along the interface between a liquid and air due to its tension. When a co-solvent or surfactant is present in an aqueous liquid at increasing concentrations, the surface tension of that liquid decreases. Interfacial tension is similar to surface tension except that it measures the force per unit length along the interface between two liquid phases arising from the surface free energy. The higher the interfacial tension between two liquids, the less likely one is to dissolve into the other, and the more difficult it is for one to be transported within the other. […]
# The laboratory study performed to confirm the co-solvent properties of the high concentration electron donor solution measured the surface tension of electron donor solutions at various concentrations. Next, interfacial tensions between the same electron donor solutions and nonaqueous phase TCE were measured. […]
# [4] = Field evaluation of enhanced in situ bioremediation at Test Area North (sodium lactate injection)
# Method: A 1-year field evaluation of enhanced in situ bioremediation was performed at Test Area North (“TAN”) of the Idaho National Engineering and Environmental Laboratory. […] The locations of a 5,000 μg/L TCE isopleth (14); 1,000 μg/L TCE isopleth (16); 100 μg/L TCE isopleth (18); and 5 μg/L TCE isopleth (20) are shown by solid lines. FIG. 2 illustrates a cross section of this site, showing the surface of the ground (22), an approximately 63-m (210-feet) fractured basalt unsaturation zone (24) (not drawn to scale), an approximately 60-m (200-feet) fractured basalt aquifer (26), and an impermeable clay interbed (28). […]
# The initial electron donor addition strategy involved continuous injection of potable water at 37.85 liters/minute (10 gpm) into Well TSF-05. […] It was determined that the continuous injection of clean water at 37.85 liters/minute (10 gpm) overwhelmed the flux of contaminants from the secondary source. […] This was intended to prevent significant quantities of electron donor from collecting in the injection well and to help prevent biofouling. […]
# Eleven monitoring wells (i.e., TAN-D2, TAN-9, TAN-10A, TAN-25, TAN-26, TAN-27, TAN-28, TAN-29, TAN-30A, TAN-31, and TAN-37) were sampled biweekly and analyzed for electron donors, biological activity indicators, competing inorganic electron acceptors and their reduced products, chloroethenes, ethene, pH, temperature, and specific conductivity.
effect on the solution's surface tension ([1]; addition of 1% and 10% ethyl lactate to the different sodium lactate solutions),SMILES,change in surface tension ([1]; sodium lactate concentration increased to 30 and 60%),change in surface tension ([1]; sodium lactate concentrations from 0.01 to 7%),"accumulated cis-DCE, average concentration ([2]; 1 month after inoculation) [ppb]","methane accumulated, average ([2]; between 6 and 7 months) [µM]",methane concentration generated ([2]; in 3 months),"TCE remaining ([2]; one month after TCE re-addition, only ethene present)","TCE remaining ([2]; three months after inoculation, only ethene detected)",ethene production as share of amended TCE ([2]; two months after inoculation) [%],interfacial tension as % of the value at a sodium lactate concentration of 0.1% ([3]; sodium lactate 30%) [%],decrease of interfacial tension ([3]; sodium lactate increased from 0.1 to 3%),reductive dechlorination of TCE to ethene ([4]; all wells receiving significant lactate concentrations),TCE concentrations deep in the aquifer soon after addition began ([4]; well TAN-26)
pronounced effect,CCOC(=O)C(C)O (stereo not shown) [ethyl lactate],–,–,–,–,–,–,–,–,–,–,–,–
–,CC(O)C(=O)[O-].[Na+] (stereo not shown) [sodium lactate],dramatic decrease,almost no change,75,21,approximately 50 μM,all of the TCE was gone,all of the TCE was gone,10,47,about 26%,Enhanced reductive dechlorination of TCE to ethene was observed,dramatic increase
